# Assay: recombinant UMI read abundance after kanamycin selection (control-corrected) (log10(CPM+1)); higher = more efficient recombination; extreme values may be limits of the assay; sequences stand for … in AGTGCAGAGAAAATCGGCCAGTTTTCTCTGCCTGCAGTCCGCATGCCGTGGGACCCCTTGGGTTCTAACCTGTTGCCTAGATTTATGCAGCGGACTGCCTTTCTCCCAAAGTGATAAACCGG…AGGTTGGTTTCACT; site = the 11-nt donor
# Method in brief: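 Sequencing read counts were converted to CPM, averaged over two replicates and scaled by control-derived factors. Results are given as log10(CPM+1). The reads covered the donor–target junction of recombinant UMIs from a pooled Escherichia coli screen of donor and donor-binding-loop pairs for the IS621 bridge recombinase.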
# 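Note: IS621 bridge recombinase in Escherichia coli cells against a fixed T5 target plasmid.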
row,Sequence,recombinant UMI read abundance (log10)
1,CTTTTGGCATGGACCGGTTTTCCCGGTAATCCGTATTTGCT (site CCTTTGGCTAG),0
2,CTTTTGGCATGGACCGGTTTTCCCGGTAATCCGTATTTGCT (site CGTTTGGCTAG),0.00381
3,CTTTTGGCATGGACCGGTTTTCCCGGTAATCCGTATTTGCT (site CTTTTGGCTAG),0
4,GAAAACGCATGGACCGGTTTTCCCGGTAATCCGTATTTGAA (site GAAAACGCTTT),2.16
5,GAAAAGTCATGGACCGGTTTTCCCGGTAATCCGTATTTGAA (site GAAAAGTCTTT),2.84
6,GAAAATTCATGGACCGGTTTTCCCGGTAATCCGTATTTGTT (site GAAAATTCTAA),0.97
7,GAAAATTCATGGACCGGTTTTCCCGGTAATCCGTATTTGTT (site GAACATTCTAA),0
8,GAAAATTCATGGACCGGTTTTCCCGGTAATCCGTATTTGTT (site GAAGATTCTAA),0.507
9,GAAAATTCATGGACCGGTTTTCCCGGTAATCCGTATTTGTT (site GAATATTCTAA),1.79
10,GAAACACCATGGACCGGTTTTCCCGGTAATCCGTATTTGTT (site GAAACACCTAA),0.0036
11,GAAACCTCATGGACCGGTTTTCCCGGTAATCCGTATTTGTG (site GAAACCTCTCA),0.406
12,GAAACGTCATGGACCGGTTTTCCCGGTAATCCGTATTTGGC (site GAAACGTCTGC),2.01
13,GAAAGCTCATGGACCGGTTTTCCCGGTAATCCGTATTTGCG (site GAAAGCTCTCG),2.77
14,GAAAGGCCATGGACCGGTTTTCCCGGTAATCCGTATTTGCA (site GAAAGGCCTTG),0
15,GAAAGGCCATGGACCGGTTTTCCCGGTAATCCGTATTTGCA (site GAACGGCCTTG),0
16,GAAAGGCCATGGACCGGTTTTCCCGGTAATCCGTATTTGCA (site GAAGGGCCTTG),0
17,GAAAGGCCATGGACCGGTTTTCCCGGTAATCCGTATTTGCA (site GAATGGCCTTG),0
18,GAAAGTCCATGGACCGGTTTTCCCGGTAATCCGTATTTGTA (site AAAAGTCCTTA),0
19,GAAAGTCCATGGACCGGTTTTCCCGGTAATCCGTATTTGTA (site CAAAGTCCTTA),0.821
20,GAAAGTCCATGGACCGGTTTTCCCGGTAATCCGTATTTGTA (site GAAAGTCCTTA),0.0817
21,GAAAGTCCATGGACCGGTTTTCCCGGTAATCCGTATTTGTA (site TAAAGTCCTTA),1.01
22,GAACGGACATGGACCGGTTTTCCCGGTAATCCGTATTTGAA (site GAACGGACTTT),0.965
23,GAACTATCATGGACCGGTTTTCCCGGTAATCCGTATTTGCC (site GAACTATCTGG),1.78
24,GAACTCACATGGACCGGTTTTCCCGGTAATCCGTATTTGAT (site GAACTCACTAT),2.08
25,GAACTCACATGGACCGGTTTTCCCGGTAATCCGTATTTGAT (site GACCTCACTAT),0.375

row,Sequence,recombinant UMI read abundance (log10)
1,GAACTCACATGGACCGGTTTTCCCGGTAATCCGTATTTGAT (site GAGCTCACTAT),0
2,GAACTCACATGGACCGGTTTTCCCGGTAATCCGTATTTGAT (site GATCTCACTAT),0.263
3,GAAGAAGCATGGACCGGTTTTCCCGGTAATCCGTATTTGAG (site GAAGAAGCTCT),2.53
4,GAAGAATCATGGACCGGTTTTCCCGGTAATCCGTATTTGTT (site GAAGAATCTAA),3.34
5,GAAGAATCATGGACCGGTTTTCCCGGTAATCCGTATTTGTT (site GAAGACTCTAA),1.41
6,GAAGAATCATGGACCGGTTTTCCCGGTAATCCGTATTTGTT (site GAAGAGTCTAA),1.59
7,GAAGAATCATGGACCGGTTTTCCCGGTAATCCGTATTTGTT (site GAAGATTCTAA),0
8,GAAGACCCATGGACCGGTTTTCCCGGTAATCCGTATTTGCG (site GAAGACCCTCG),0.691
9,GAAGAGGCATGGACCGGTTTTCCCGGTAATCCGTATTTGTA (site GAAGAGGCTTA),1.64
10,GAAGATCCATGGACCGGTTTTCCCGGTAATCCGTATTTGTT (site GAAGATACTAA),0.0059
11,GAAGATCCATGGACCGGTTTTCCCGGTAATCCGTATTTGTT (site GAAGATCCTAA),1.25
12,GAAGATCCATGGACCGGTTTTCCCGGTAATCCGTATTTGTT (site GAAGATGCTAA),0.00882
13,GAAGATCCATGGACCGGTTTTCCCGGTAATCCGTATTTGTT (site GAAGATTCTAA),0.0204
14,GAAGATTCATGGACCGGTTTTCCCGGTAATCCGTATTTGAT (site GAAGATTCTAA),0.773
15,GAAGATTCATGGACCGGTTTTCCCGGTAATCCGTATTTGAT (site GAAGATTCTAC),0.00538
16,GAAGATTCATGGACCGGTTTTCCCGGTAATCCGTATTTGAT (site GAAGATTCTAG),0
17,GAAGATTCATGGACCGGTTTTCCCGGTAATCCGTATTTGAT (site GAAGATTCTAT),2.48
18,GAAGATTCATGGACCGGTTTTCCCGGTAATCCGTATTTGTG (site GAAGATTCTAA),1.55
19,GAAGATTCATGGACCGGTTTTCCCGGTAATCCGTATTTGTG (site GAAGATTCTCA),2.81
20,GAAGATTCATGGACCGGTTTTCCCGGTAATCCGTATTTGTG (site GAAGATTCTGA),0
21,GAAGATTCATGGACCGGTTTTCCCGGTAATCCGTATTTGTG (site GAAGATTCTTA),1.24
22,GAAGGACCATGGACCGGTTTTCCCGGTAATCCGTATTTGCG (site GAAGGACCTCG),0
23,GAAGGGACATGGACCGGTTTTCCCGGTAATCCGTATTTGCA (site GAAGGGACTTG),2.41
24,GAAGGTGCATGGACCGGTTTTCCCGGTAATCCGTATTTGAA (site GAAGGTGCTTT),2.08
25,GAAGTCTCATGGACCGGTTTTCCCGGTAATCCGTATTTGGT (site GAAGTCTCTAC),2.53

row,Sequence,recombinant UMI read abundance (log10)
1,GAATACACATGGACCGGTTTTCCCGGTAATCCGTATTTGCG (site GAATACACTCG),2.66
2,GAATACTCATGGACCGGTTTTCCCGGTAATCCGTATTTGGA (site GAATACTCTTC),2.53
3,GAATAGACATGGACCGGTTTTCCCGGTAATCCGTATTTGCC (site GAATAGACTGG),2.33
4,GAATAGACATGGACCGGTTTTCCCGGTAATCCGTATTTGCC (site GCATAGACTGG),1.73
5,GAATAGACATGGACCGGTTTTCCCGGTAATCCGTATTTGCC (site GGATAGACTGG),1.44
6,GAATAGACATGGACCGGTTTTCCCGGTAATCCGTATTTGCC (site GTATAGACTGG),2.39
7,GAATAGTCATGGACCGGTTTTCCCGGTAATCCGTATTTGGG (site GAATAGTCTCC),1.13
8,GAATGAACATGGACCGGTTTTCCCGGTAATCCGTATTTGGT (site GAATGAACTAC),1.55
9,GAATGGCCATGGACCGGTTTTCCCGGTAATCCGTATTTGCT (site GAATGGCCTAG),0.0235
10,GAATGGCCATGGACCGGTTTTCCCGGTAATCCGTATTTGCT (site GAATGGCCTCG),0.0255
11,GAATGGCCATGGACCGGTTTTCCCGGTAATCCGTATTTGCT (site GAATGGCCTGG),0
12,GAATGGCCATGGACCGGTTTTCCCGGTAATCCGTATTTGCT (site GAATGGCCTTG),0
13,GAATTCGCATGGACCGGTTTTCCCGGTAATCCGTATTTGCT (site GAATTCGCTAG),2.87
14,GACAAAACATGGACCGGTTTTCCCGGTAATCCGTATTTGCG (site GACAAAACTCG),1.5
15,GACAAAACATGGACCGGTTTTCCCGGTAATCCGTATTTGGC (site GACAAAACTGC),0
16,GACAAACCATGGACCGGTTTTCCCGGTAATCCGTATTTGGG (site GACAAACCTAC),0.0248
17,GACAAACCATGGACCGGTTTTCCCGGTAATCCGTATTTGGG (site GACAAACCTCC),0
18,GACAAACCATGGACCGGTTTTCCCGGTAATCCGTATTTGGG (site GACAAACCTGC),0
19,GACAAACCATGGACCGGTTTTCCCGGTAATCCGTATTTGGG (site GACAAACCTTC),0
20,GACAATCCATGGACCGGTTTTCCCGGTAATCCGTATTTGAA (site GACAATCCTTT),0.601
21,GACAATCCATGGACCGGTTTTCCCGGTAATCCGTATTTGAA (site GCCAATCCTTT),0
22,GACAATCCATGGACCGGTTTTCCCGGTAATCCGTATTTGAA (site GGCAATCCTTT),0.0165
23,GACAATCCATGGACCGGTTTTCCCGGTAATCCGTATTTGAA (site GTCAATCCTTT),0.0122
24,GACACAGCATGGACCGGTTTTCCCGGTAATCCGTATTTGAC (site GACACAGCTGT),2.44
25,GACACGTCATGGACCGGTTTTCCCGGTAATCCGTATTTGCC (site GACACGTCTGG),2.45
